Results: patent publication US4643989A, “Inhibition of aldosterone secretion” (The Salk Institute for Biological Studies, priority 1984, dated 1987)
Bridges are numbered along the chain shown (N, C = ends).

Legend:
[1] = test system: pituitary ACTH secretion; experiment: Pituitary ACTH secretion; details: other experiments
[2] = test system: rat glomerulosa cells; experiment: AN-II-stimulated aldosterone secretion by rat glomerulosa cells; assay type: cell-based; details: equimolar amounts of AN-II and peptide; p<0.001 versus secretagogue alone
Experimental: (§1) Rat adrenoglomerulosa cells are obtained by enzymatic digest of adrenals harvested from peripubertal male Sprague Dawley rats(Holtzman, 125 g) using previously described methods, and testing is carried out to determine the effect of synthetic rANF(8-33) on the basal secretion of aldosterone by rat glomerulosa cells. Rat glomerulosa cells are prepared by enzymatic digestion of 20 rat adrenals after ennucleation. The cells remaining on the capsule are digested for 30 minutes with a mixture of collagenase and DNase (4 mg/ml, 4 μg/ml). Dispersed cells are filtered through gauze and centrifuged at 800 rpm for 15 minutes. The pellet is resuspended in M199 buffer containing 0.1% bovine serum albumin(BSA), and the cells are centrifuged at 800 rpm for 15 minutes. The cell pellet is again resuspended in M199-0.1% BSA buffer and distributed in 900-μl aliquots to 12×75 plastic tubes. The samples are preincubated for 90 minutes in a 37° C. waterbath under an atmosphere of 5% CO2 -95% O2. […] Aldosterone and corticosterone are measured by radioimmunoassay using antisera purchased from Endocrine Sciences, Oxnard, Calif. and [^3 H]-labelled steroid from New England Nuclear, Boston, Mass. […]
(§2) Similar inhibitory effects on aldosterone formation are obtained when its secretion by the glomerulosa cells in vitro is stimulated with either ACTH or AN-II. […] Aldosterone secretion is measured as above by radioimmunoassay. […]

[3] = test system: rat adrenoglomerulosa cells; experiment: Basal secretion of aldosterone by rat glomerulosa cells (radioimmunoassay); assay type: cell-based; details: for testing as set forth in Example II (inhibition of aldosterone secretion by rat glomerulosa cells): compared with rANF(8-33) results of Example II
Experimental: (§3) Rat adrenoglomerulosa cells are obtained by enzymatic digest of adrenals harvested from peripubertal male Sprague Dawley rats(Holtzman, 125 g) using previously described methods, and testing is carried out to determine the effect of synthetic rANF(8-33) on the basal secretion of aldosterone by rat glomerulosa cells. Rat glomerulosa cells are prepared by enzymatic digestion of 20 rat adrenals after ennucleation. The cells remaining on the capsule are digested for 30 minutes with a mixture of collagenase and DNase (4 mg/ml, 4 μg/ml). Dispersed cells are filtered through gauze and centrifuged at 800 rpm for 15 minutes. The pellet is resuspended in M199 buffer containing 0.1% bovine serum albumin(BSA), and the cells are centrifuged at 800 rpm for 15 minutes. The cell pellet is again resuspended in M199-0.1% BSA buffer and distributed in 900-μl aliquots to 12×75 plastic tubes. The samples are preincubated for 90 minutes in a 37° C. waterbath under an atmosphere of 5% CO2 -95% O2. Aliquots of the test samples are added in a 100 μl volume and incubated for 4 hours. Aldosterone and corticosterone are measured by radioimmunoassay using antisera purchased from Endocrine Sciences, Oxnard, Calif. and [^3 H]-labelled steroid from New England Nuclear, Boston, Mass. Results are the mean±SEM of 7 replicates. Statistical analysis is performed by analysis of variance, and all points are significant (p<0.01) from control. In concentrations as low as ≤10^-9 M, there is a significant (p<0.01) inhibition of aldosterone synthesis that is even more accentuated when the higher concentrations are tested (p<0.001).

[4] = test system: rat glomerulosa cells; experiment: ACTH-stimulated aldosterone secretion by rat glomerulosa cells; assay type: cell-based; details: equimolar amounts of ACTH and peptide; p<0.001 versus secretagogue alone
Experimental: as §1, §2

[5] = test system: rat glomerulosa cells; experiment: Corticosterone formation by rat glomerulosa cells (radioimmunoassay); assay type: cell-based; details: 10^-7 M peptide
Experimental: as §3
In other experiments, ANF(8-33) had no effect on pituitary ACTH secretion.

Substance: rANF(8-33): 26-residue fragment of rat atrial natriuretic factor with disulfide bond between the Cys residues
- effect on pituitary ACTH secretion [1]: no effect
- inhibition of AN-II-stimulated aldosterone secretion [2]: significant inhibition of aldosterone secretion
- stimulation of aldosterone [3]: at no point was rANF(8-33) observed to stimulate aldosterone
- concentration giving significant inhibition of aldosterone synthesis (basal secretion) ([3]; basal, 4 hours incubation, p<0.01 versus control, more accentuated at higher concentrations (p<0.001)): ≤ 10^-9 M
- inhibition of ACTH-stimulated aldosterone secretion [4]: significant inhibition of aldosterone secretion
- basal corticosterone formation ([5]; decrease from 24.7±0.8 ng/ml without peptide): 7.8 ± 0.3 ng/mL
- AN-II-stimulated corticosterone formation ([5]; decrease from 37.2±1.4 ng/ml without peptide, p<0.001): 21.9 ± 0.9 ng/mL
- ACTH-stimulated corticosterone formation ([5]; decrease from 43.4±0.7 ng/ml without peptide, p<0.001): 36.1 ± 0.7 ng/mL

Substance: rANF(8-30): rat ANF fragment 8-30
- testing as set forth in Example II (inhibition of aldosterone secretion by rat glomerulosa cells) [3]: comparable results

Substance: rANF(3-33)--NH2: C-terminal amide of rat ANF fragment 3-33
- testing as set forth in Example II (inhibition of aldosterone secretion by rat glomerulosa cells) [3]: comparable results

Substance: rANF(5-33): rat ANF fragment 5-33
- testing as set forth in Example II (inhibition of aldosterone secretion by rat glomerulosa cells) [3]: comparable results

Substance: rANF(8-32)--NH2: C-terminal amide of rat ANF fragment 8-32
- testing as set forth in Example II (inhibition of aldosterone secretion by rat glomerulosa cells) [3]: comparable results

Substance: H-Arg-Arg-Ser-Ser-Cys-Phe-Gly-Gly-Arg-Met-Asp-Arg-Ile-Gly-Ala-Gln-Ser-Gly- Leu-Gly-Cys-Asn-Ser-Phe-Tyr-OH (H-RRSSCFGGRMDRIGAQSGLGCNSFY-OH; disulfide 5-21; ends not checked) [hANF(8-33)]
- testing as set forth in Example II (inhibition of aldosterone secretion by rat glomerulosa cells) [3]: comparable results
